Test results: US10427133B2, “Absorbent article comprising cyclodextrin complexes” (The Procter & Gamble Company, priority 2016, dated 2019)

Assay: Thiol Vapor Pressure Suppression (TVPS) index measurement, zNose fast GC headspace
Settings: 5 μl compound, 100 μl 1% v/v butanethiol in ethanol, 37° C. for 4 hours
Text: (§1) Thiol Vapor Pressure Suppression (TVPS) index is a measure of the reduction in butanethiol concentration in the headspace by a compound, as measured using a fast GC instrument, the zNose 7100 (Electronic Sensor Technologies, Newbury Park, Calif.).
as §1, with “Calif.) based on an Surface Acoustic Wave (SAW) Quartz microbalance detector, or equivalent.” for “Calif.).”
Before any measurements the instrument is calibrated according to manufacturer's instructions under the same experimental settings. The instrument has a DB-5 column (also available from Electronic Sensor Technologies, Newbury Park, Calif.) 1 m in length, 0.25 μm phase thickness, and 0.25 mm in diameter.
For analysis, the zNose is programmed with the Sensor Temperature, Inlet Temperature, Valve Temperature, and Initial Column Temperature all set to 40° C. The oven is temperature gradient is programmed at a rate of 10° C./s from 40° C. to a final temperature of 200° C.
TVPS of a compound is measured in the following way: 100 μl±1 μl of a 1% v/v butanethiol (99%, purity, available from Sigma-Aldrich, St. Louis, Mo.) solution in ethanol (200 proof) is added into a 1 ml vial (8×40 mm). These vials are borosilcate glass straight walled vial. In another 1 ml vial (8×40 mm), 5 μl±0.2 μl of the compound is added. Both open vials are then placed inside a 20 mL headspace vial (22×75 mm), and the vial is immediately sealed using a screw thread closure with PTFE/Silicone septa. The vial is heated to 37° C. for 4 hours. After 4 hours, the vial is removed from the oven and let to equilibrate at 25° C.±2° C. for 15 minutes. The headspace inside the vial is sampled using the zNose is sampled for 10 s and analyzed following the experimental protocol outlined above. Samples with butanethiol alone, and the volatile active alone, are run using the same protocol to identify the peaks for both materials. An acceptable retention index for butanethiol is 720±30. If the peaks butanethiol peak and the volatile material peak co-elute, one skilled in the art can modify the protocol settings to separate those peaks to achieve a minimum resolution of 1.5. For example one can change the column temperature ramp rate. In between samples, the instrument needs to be cleaned to remove any trace materials. To clean the instrument, the instrument is run without samples as needed until no peaks greater than 100 counts are observed.
The amount of butanethiol in the headspace is measured from the area of the peak on the chromatograph for butanethiol (ABtSH,Rx). To calculate the percentage of butanethiol reduction in the headspace, a control with the butanethiol solution without the volatile material is run in the same manner and the area is measured as well (ABtSH,C). TVPS is then measured as the percentage reduction in butanethiol area calculated using the following formula: […]

SMILES | TVPS (percentage reduction in butanethiol headspace peak area)
CC(C)=CCCC(C)C=O (centres unmarked) [melonal] | 20.4
CC(C)=CCC/C(C)=C\C=O [neral] | 17.1
CC1=CC(C)C(C=O)CC1 (centres unmarked) [ligustral] | 42.5
CC(C)c1cccc(C(C)CC=O)c1 (centres unmarked) [Florhydral] | 53.3
CC(C)=CCCC(C)CCCC(C)C=O (centres unmarked) [adoxal] | 24.4
CCCCCCC(C=O)=Cc1ccccc1 [Hexylcinnamic aldehyde] | 8.0
CCC/C=C/C=O [trans-2-hexenal] | 27.1
C=CC(C)CCC=C(C)CCC=O (centres unmarked) [Floral Super] | 52.4
Cc1ccc(C=O)s1 [5-methyl-2-thiophene-carboxaldehyde] | 67.4

Assay: Fragrance (OCOC) release from cyclodextrin complexes on feminine hygiene pad, SPME-GC/MS headspace
Assay type: physicochemical
Settings: 1.00 mL water, headspace at 5, 10, 30 min, FIG. 2
Text: The results are shown in the graph of FIG. 2. After dosing with water the headspace was sampled using Solid Phase Micro-Extraction (a suitable fiber assembly is a 2 cm Stableflex 24 Ga, 50/30 μm DVB/CAR/PDMS available from Supelco, Pa. or equivalent) followed by gas chromatography/mass spectrometry (a suitable unit is the 5777A Mass Selective Detector (MSD) also available from Agilent, or equivalent) with a GERSTEL Multipurpose Sampler (Gerstel, Liticumo, Md. or equivalent) to quantify the OCOC release.
The model OCOC used is a neat mixture of benzaldehyde (1.6 g, 15.08 mmols), ligustral (1.6 g, 11.58 mmols), citral (1.6 g, 10.51 mmols), cinnamic aldehyde (1.6 g, 12.11 mmols), and florhydral (1.6 g, 8.41 mmols). All components are available from Sigma Aldrich, or equivalent. The mixture is homogenized before use.
The Standard Pad Substrates are prepared by cutting a 10 cm lateral strip across the whole product centered at the longitudinal center of an Always Ultra normal size pad.
A mixture of the model OCOC for each β-cyclodextrin type was solubilized in water at a one-to-one molar ratio (β-cyclodextrin/OCOC). The amount of water used for the complexation was adjusted for each β-cyclodextrin type according to its individual water solubility to ensure complete dissolution of the β-cyclodextrin complex. Each mixture of β-cyclodextrin and OCOC in water was thoroughly homogenized. […]

SMILES | Percent release of fragrance versus conventional β-cyclodextrin complex | Release of fragrance versus 2,3,6-trimethyl-β-cyclodextrin complex
COC[C@H]1O[C@@H]2O[C@H]3[C@H](O)[C@@H](OC)[C@@H](O[C@H]4[C@H](O)[C@@H](OC)[C@@H](O[C@H]5[C@H](O)[C@@H](OC)[C@@H](O[C@H]6[C@H](O)[C@@H](OC)[C@@H](O[C@H]7[C@H](O)[C@@H](OC)[C@@H](O[C@H]8[C@H](O)[C@@H](OC)[C@@H](O[C@H]1[C@H](O)[C@H]2OC)O[C@@H]8COC)O[C@@H]7COC)O[C@@H]6COC)O[C@@H]5COC)O[C@@H]4COC)O[C@@H]3COC [2,6-dimethyl-β-cyclodextrin, 2,6-Di-O-methyl-β-cyclodextrin] | much higher percent release of fragrance than does conventional β-cyclodextrin | much higher release of fragrance than does 2, 3, 6-trimethyl-β-cyclodextrin
